{"source": "patent US20100331424A1", "about": "“Use of Axomadol for Treatment of Arthrosis Pain” (Gruenenthal GmbH, priority 2007, published 2010)", "key": {"[1]": {"system": "CFA-hyperalgesia (CFA-HA)", "test": "Antihyperalgesic effect in the chronic inflammation pain model (Complete Freund's Adjuvant, electronic von Frey)", "type": "in vivo, Sprague Dawley rats", "protocol": "The test to determine the antihyperalgesic effect of axomadol in chronic inflammation pain was conducted on rats in the Complete Freund's Adjuvant animal model (CFA).\nA model for chronic inflammation represents the monoarthritis triggered by the Complete Freund's Adjuvant (CFA). By injecting a small quantity of CFA (100 μg M. tuberculosis) into the back paw a local inflammatory reaction restricted in time to 2-4 weeks occurred.\nSprague Dawley rats from a commercial breeder (Janvier, Belgium) having a weight of 140-160 g were used as test animals. The CFA-HA was induced in rats by subplantar injection of CFA (100 μl of the 1 mg/ml mycobacteria (heat-killed M. tuberculosis)/oil suspension (IFA; Difco)) into the back paw (ipsilaterally). The injection day was defined as day 0 (d 0).\nHyperalgesia to a mechanical tactile stimulus was detected by means of an electronic von Frey measuring instrument (Somedic Electronic von Frey System, Somedic Sales AB, Horby, Sweden). The paw was stimulated by subplantar application. To quantify the sensitivity of both the ipsi- and the contralateral paw to the mechanical stimulus, the paw pull-away threshold was given in grams of applied pressure. The median was formed from the four measured values per paw. The pull-away threshold of the ipsi- and contralateral paw was determined on day 1 after CFA injection before (=initial value) and at different times (15, 20 and 60 minutes) after substance dose (measured value). The efficacy of a substance was calculated as % inhibition of hyperalgesia as follows:\n% inhibition of HA=(1−HA measured value/HA initial value)×100\nHA initial value=pull away threshold contralateral−pull away threshold ipsilateral before substance dose\nHA measured value=pull away threshold contralateral−pull away threshold ipsilateral after substance dose\nIn total, 10 rats were used in each test animal group. The mean±SEM was calculated from the medians of the individual animals. The significance calculation was conducted using the two-factor analysis of the variance (ANOVA) for repeated measurements. In the case of a significant treatment effect, a comparison in pairs was conducted at different measurement times by a Fisher's significance test, followed by a post hoc Dunnett test. The results were assessed as statistically significant at p<0.05.\nIn order to determine the maximum efficacy, the substance was administered intravenously (IV) up to the maximum possible dose."}, "[2]": {"system": "moderate to severe chronic pain as a result of osteoarthritis (OA) of the knee", "test": "Clinical Study B: axomadol vs oxycodone CR and placebo, 4 weeks, patients with OA of the knee", "type": "in vivo", "settings": "for p of primary endpoint compared to the placebo group: per protocol set", "protocol": "In this study, patients with OA of the knee were divided into 4 groups. Two of the patient groups received different doses of axomadol hydrochloride: 100 mg and 150 mg based on the free base, twice daily in each case after a titration period of 2 weeks, in which the dose of axomadol was increased on a weekly basis. […] A further group was given a placebo twice daily."}, "[3]": {"system": "moderate to severe chronic pain as a result of osteoarthritis (OA) of the hip or knee", "test": "Clinical Study A: axomadol vs tramadol and placebo, 4 weeks, patients with OA of the hip or knee", "type": "in vivo", "settings": "for Decrease in pain intensity compared to baseline: full analysis set, day 29, axomadol 44, 66, 110 mg bid, tramadol 100 mg bid", "protocol": "(§1) Two studies with a respective treatment period of 4 weeks were conducted to determine the efficacy and safety of axomadol in patients with moderate to severe chronic pain as a result of osteoarthritis (arthrosis, OA) of functional class I-III.\nIn this study, patients with OA of the hip or knee were divided into 5 groups."}, "[4]": {"system": "moderate to severe chronic pain as a result of osteoarthritis (arthrosis, OA) of functional class I-III", "test": "Both clinical studies (A and B), statements made for both", "type": "in vivo, patients", "settings": "after 4 weeks", "protocol": "as §1"}}, "note": "Where a name gives a salt, the structure may show the parent alone.", "data": [{"smiles": "CN1CC[C@]23c4c5ccc(O)c4O[C@H]2[C@@H](O)C=C[C@H]3[C@H]1C5", "note": "[Morphine]", "values": [{"measurement": "Dose from which overlap with antinociceptive effect (comparators: also side-effects that impair measurement)", "setting": "[1]; rat, IV", "value": "From 4.64 mg/kg: overlap with antinociceptive"}, {"measurement": "% Inhibition of HA", "setting": "[1]; rat, IV, dose 0.46 mg/kg", "value": 8, "unit": "%"}, {"measurement": "% Inhibition of HA", "setting": "[1]; rat, IV, dose 1.00 mg/kg", "value": 20, "unit": "%"}, {"measurement": "% Inhibition of HA", "setting": "[1]; rat, IV, dose 2.15 mg/kg", "value": 27, "unit": "%"}]}, {"smiles": "COc1ccc2c3c1O[C@H]1C(=O)CC[C@@]4(O)[C@@H](C2)N(C)CC[C@]314", "note": "[Oxycodone]", "values": [{"measurement": "p of primary endpoint compared to the placebo group", "setting": "[2]; oxycodone CR 20 mg twice daily group", "value": 0.0154}, {"measurement": "Dose from which overlap with antinociceptive effect (comparators: also side-effects that impair measurement)", "setting": "[1]; rat, IV", "value": "From 0.681 mg/kg: overlap with antinociceptive"}, {"measurement": "% Inhibition of HA", "setting": "[1]; rat, IV, dose 0.215 mg/kg", "value": 18, "unit": "%"}, {"measurement": "% Inhibition of HA", "setting": "[1]; rat, IV, dose 0.681 mg/kg", "value": 26, "unit": "%"}]}, {"smiles": "COc1cccc([C@@]2(O)C[C@H](O)CC[C@@H]2CN(C)C)c1", "note": "(racemic) [Axomadol, (1RS,3RS,6RS)-6-dimethylaminomethyl-1-(3-methoxyphenyl)-cyclohexane-1,3-diol]", "values": [{"measurement": "Decrease in pain intensity compared to baseline", "setting": "[3]", "value": "clinically relevant decrease in pain intensity"}, {"measurement": "p of decrease in pain intensity compared to the placebo group", "setting": "[3]; per protocol set, 110 mg twice daily", "value": "< 0.05"}, {"measurement": "Decrease in pain intensity, dose dependence", "setting": "[3]; per protocol set, axomadol 44, 66, 110 mg twice daily", "value": "higher efficacy at the higher dose"}, {"measurement": "Frequency of undesirable side-effects which caused patients to discontinue the study", "setting": "[2]; 100 mg group", "value": 16.3, "unit": "%"}, {"measurement": "Frequency of undesirable side-effects which caused patients to discontinue the study", "setting": "[2]; 150 mg group", "value": 17.7, "unit": "%"}, {"measurement": "Severity of undesirable effects", "setting": "[2]; axomadol groups 100 mg and 150 mg twice daily", "value": "slight to moderate"}, {"measurement": "p of average pain intensity of the last 24 hours on day 29 compared to the placebo", "setting": "[2]; full analysis set, 100 mg twice daily", "value": 0.0190}, {"measurement": "p of primary endpoint compared to the placebo group", "setting": "[2]; 100 mg twice daily group", "value": 0.0068}, {"measurement": "p of primary endpoint compared to the placebo group", "setting": "[2]; 150 mg twice daily group", "value": 0.0079}, {"measurement": "Decrease in pain intensity", "setting": "[4]", "value": "clinically significant decrease in pain intensity"}, {"measurement": "Analgesic efficacy compared to morphine, oxycodone and tramadol (in words)", "setting": "[1]; chronic inflammation pain model", "value": "better analgesic efficacy"}, {"measurement": "Effect on CFA-induced hyperalgesia (in words)", "setting": "[1]; rat", "value": "significantly reduces"}]}, {"smiles": "COc1cccc(C2(O)CCCCC2CN(C)C)c1", "note": "(stereo not shown) [Tramadol, reference compound]", "values": [{"measurement": "Decrease in pain intensity compared to baseline", "setting": "[3]", "value": "not observed"}, {"measurement": "Dose from which overlap with antinociceptive effect (comparators: also side-effects that impair measurement)", "setting": "[1]; rat, IV", "value": "From 4.64 mg/kg: overlap with antinociceptive"}]}, {"smiles": "COc1cccc([C@@]2(O)C[C@H](O)CC[C@@H]2CN(C)C)c1", "note": "(racemic) [Axomadol-HCl, (1RS,3RS,6RS)-6-dimethylaminomethyl-1-(3-methoxyphenyl)-cyclohexane-1,3-diol]", "values": [{"measurement": "Instance of the most frequent undesirable effects vs every other treatment group", "setting": "[3]; 110 mg twice daily", "value": "higher"}, {"measurement": "Dose from which overlap with antinociceptive effect (comparators: also side-effects that impair measurement)", "setting": "[1]; rat, IV", "value": "From 14.7 mg/kg: overlap with antinociceptive"}, {"measurement": "% Inhibition of HA", "setting": "[1]; rat, IV, dose 2.15 mg/kg", "value": 16, "unit": "%"}, {"measurement": "% Inhibition of HA", "setting": "[1]; rat, IV, dose 10.0 mg/kg", "value": 40, "unit": "%"}, {"measurement": "% Inhibition of HA", "setting": "[1]; rat, IV, dose 14.7 mg/kg", "value": 9, "unit": "%"}, {"measurement": "Antihyperalgesic effect at higher doses", "setting": "[1]; rat, IV, doses higher than 10 mg/kg", "value": 9, "unit": "%"}]}]}
